Assay results from US6096930A, “Herbicidal cyclohexane-1,3-dione derivatives and their preparation process” (Korea Research Institute of Chemical Technology, priority 1994, dated 2000).

Columns and labels:
Assay in all cases: Herbicidal activity, upland test, pre-emergence
Assay type in all cases: in vivo
AESIN = system: AESIN
How it was run: (§1)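 Upland pots of sterilized sandy loam were sown, then treated pre-emergence the next day with an acetone/water spray (Tween 20 up to 0.1%); application rates were generally 4.0 kg/ha and submultiples. Effects were rated visually as percent control at 21 days.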

SORBI = system: SORBI
How it was run: as §1

BROJA = system: BROJA
How it was run: as §1

ZEAMX = system: ZEAMX
How it was run: as §1

GOSHI = system: GOSHI
How it was run: as §1

DIGSA = system: DIGSA
How it was run: as §1

ECHOR = system: ECHOR
How it was run: as §1

SOLNI = system: SOLNI
How it was run: as §1

| Structure (SMILES) | Herbicidal activity, AESIN (AESIN; 0.016 kg/ha) | Herbicidal activity, AESIN (AESIN; 0.063 kg/ha) | Herbicidal activity, AESIN (AESIN; 1.000 kg/ha) | Herbicidal activity, AESIN (AESIN; 1.250 kg/ha) | Herbicidal activity, SORBI (SORBI; 0.016 kg/ha) | Herbicidal activity, SORBI (SORBI; 0.063 kg/ha) | Herbicidal activity, SORBI (SORBI; 1.000 kg/ha) | Herbicidal activity, SORBI (SORBI; 1.250 kg/ha) | Herbicidal activity, BROJA (BROJA; 0.016 kg/ha) | Herbicidal activity, BROJA (BROJA; 0.063 kg/ha) | Herbicidal activity, BROJA (BROJA; 1.000 kg/ha) | Herbicidal activity, BROJA (BROJA; 1.250 kg/ha) | Herbicidal activity, ZEAMX (ZEAMX; 0.016 kg/ha) | Herbicidal activity, ZEAMX (ZEAMX; 0.063 kg/ha) | Herbicidal activity, ZEAMX (ZEAMX; 1.000 kg/ha) | Herbicidal activity, ZEAMX (ZEAMX; 1.250 kg/ha) | Herbicidal activity, GOSHI (GOSHI; 0.016 kg/ha) | Herbicidal activity, GOSHI (GOSHI; 0.063 kg/ha) | Herbicidal activity, GOSHI (GOSHI; 1.000 kg/ha) | Herbicidal activity, GOSHI (GOSHI; 1.250 kg/ha) | further results |
| --- | --- | --- | --- | --- | --- | --- | --- | --- | --- | --- | --- | --- | --- | --- | --- | --- | --- | --- | --- | --- | --- |
| CCON=C(CC)C1=C(O)CC(c2c(C)c(C)c3c(c2C)CC(C)(C)C3)CC1=O (stereo not drawn) [Compound 2] | 0 % inhibition | 0 % inhibition | 0 % inhibition | 0 % inhibition | 0 % inhibition | 0 % inhibition | 100 % inhibition | 30 % inhibition | 0 % inhibition | 20 % inhibition | 100 % inhibition | 60 % inhibition | 0 % inhibition | 0 % inhibition | 100 % inhibition | 40 % inhibition | 0 % inhibition | 0 % inhibition | 0 % inhibition | 0 % inhibition | Herbicidal activity, DIGSA (DIGSA; 0.016 kg/ha): 0 % inhibition; Herbicidal activity, DIGSA (DIGSA; 0.063 kg/ha): 60 % inhibition; Herbicidal activity, DIGSA (DIGSA; 1.000 kg/ha): 100 % inhibition; Herbicidal activity, DIGSA (DIGSA; 1.250 kg/ha): 100 % inhibition; Herbicidal activity, ECHOR (ECHOR; 0.016 kg/ha): 0 % inhibition; Herbicidal activity, ECHOR (ECHOR; 0.063 kg/ha): 40 % inhibition; Herbicidal activity, ECHOR (ECHOR; 1.000 kg/ha): 100 % inhibition; Herbicidal activity, ECHOR (ECHOR; 1.250 kg/ha): 100 % inhibition; Herbicidal activity, SOLNI (SOLNI; 0.016 kg/ha): 0 % inhibition; Herbicidal activity, SOLNI (SOLNI; 0.063 kg/ha): 0 % inhibition; Herbicidal activity, SOLNI (SOLNI; 1.000 kg/ha): 0 % inhibition; Herbicidal activity, SOLNI (SOLNI; 1.250 kg/ha): 0 % inhibition |
| CCC(=NOC)C1=C(O)CC(c2c(C)c(C)c3c(c2C)CC(C)(C)C3)CC1=O (stereo not drawn) [Compound 1] | 0 % inhibition | 0 % inhibition | 0 % inhibition | 0 % inhibition | 0 % inhibition | 0 % inhibition | 60 % inhibition | 20 % inhibition | 0 % inhibition | 0 % inhibition | 100 % inhibition | 40 % inhibition | 0 % inhibition | 0 % inhibition | 60 % inhibition | 10 % inhibition | 0 % inhibition | 0 % inhibition | 0 % inhibition | 0 % inhibition | Herbicidal activity, DIGSA (DIGSA; 0.016 kg/ha): 0 % inhibition; Herbicidal activity, DIGSA (DIGSA; 0.063 kg/ha): 30 % inhibition; Herbicidal activity, DIGSA (DIGSA; 1.000 kg/ha): 100 % inhibition; Herbicidal activity, DIGSA (DIGSA; 1.250 kg/ha): 70 % inhibition; Herbicidal activity, ECHOR (ECHOR; 0.016 kg/ha): 0 % inhibition; Herbicidal activity, ECHOR (ECHOR; 0.063 kg/ha): 30 % inhibition; Herbicidal activity, ECHOR (ECHOR; 1.000 kg/ha): 100 % inhibition; Herbicidal activity, ECHOR (ECHOR; 1.250 kg/ha): 80 % inhibition; Herbicidal activity, SOLNI (SOLNI; 0.016 kg/ha): 0 % inhibition; Herbicidal activity, SOLNI (SOLNI; 0.063 kg/ha): 0 % inhibition; Herbicidal activity, SOLNI (SOLNI; 1.000 kg/ha): 0 % inhibition; Herbicidal activity, SOLNI (SOLNI; 1.250 kg/ha): 0 % inhibition |
| CCCC(=NOC)C1=C(O)CC(c2c(C)c(C)c3c(c2C)CC(C)(C)C3)CC1=O (stereo not drawn) [Compound 6] | 0 % inhibition | 0 % inhibition | 0 % inhibition | 0 % inhibition | 0 % inhibition | 0 % inhibition | 30 % inhibition | 0 % inhibition | 0 % inhibition | 0 % inhibition | 80 % inhibition | 40 % inhibition | 0 % inhibition | 0 % inhibition | 40 % inhibition | 0 % inhibition | 0 % inhibition | 0 % inhibition | 0 % inhibition | 0 % inhibition | Herbicidal activity, DIGSA (DIGSA; 0.016 kg/ha): 0 % inhibition; Herbicidal activity, DIGSA (DIGSA; 0.063 kg/ha): 0 % inhibition; Herbicidal activity, DIGSA (DIGSA; 1.000 kg/ha): 100 % inhibition; Herbicidal activity, DIGSA (DIGSA; 1.250 kg/ha): 60 % inhibition; Herbicidal activity, ECHOR (ECHOR; 0.016 kg/ha): 0 % inhibition; Herbicidal activity, ECHOR (ECHOR; 0.063 kg/ha): 0 % inhibition; Herbicidal activity, ECHOR (ECHOR; 1.000 kg/ha): 100 % inhibition; Herbicidal activity, ECHOR (ECHOR; 1.250 kg/ha): 50 % inhibition; Herbicidal activity, SOLNI (SOLNI; 0.016 kg/ha): 0 % inhibition; Herbicidal activity, SOLNI (SOLNI; 0.063 kg/ha): 0 % inhibition; Herbicidal activity, SOLNI (SOLNI; 1.000 kg/ha): 0 % inhibition; Herbicidal activity, SOLNI (SOLNI; 1.250 kg/ha): 0 % inhibition |
